Measured values published in patent US20250360113A1, “ADMINISTRATION OF DHB TO INCREASE BENEFIT OF LOSING WEIGHT OF INTERMITTENT FASTING” (NANJING NUTRABUILDING BIO-TECH CO., LTD., priority 2023, published 2025).

Assay: Normal-diet mice given DHB with or without EODF, tested by the same method
Format: in vivo, C57BL/6 male mice
Settings: normal mice on normal diet
Experimental: 40 C57BL/6 male mice aged about 8 weeks, are randomly assigned to four study groups (GA1, GA2, GA3, GA4) of ten mice each (one cage, […]). Mice were maintained in a pathogen free condition under a strict 12 h light/dark cycle (0600/1800 h) with 12-15 cycles/hour of air change. Mice were provided with access to respective feed and water ad libitum as per experimental conditions. Mice were housed under controlled laboratory conditions of temperature and humidity at 23±2° C. and 50±10% RH, respectively. Each study group consisted of ten animals, and treatment details of the individual study groups are given below: • Group A1 (GA1, NC): Normal mice, maintained on normal diet (standard chow, 12% calories from fat; 23% calories from protein and 65% calories from carbohydrates) for 8 weeks, receiving neither EODF nor DHB treatment. • Group A2 (GA2): Normal mice, maintained on normal diet for 8 weeks, receiving only EODF and no DHB treatment. • Group A3 (GA3): Normal mice, maintained on normal diet for 8 weeks, receiving only DHB treatment and no EODF. • Group A4(GA4): Normal mice, maintained on normal diet for 8 weeks, receiving DHB treatment and EODF combination. Test according to the above method. […] This effect persists for as long as the test protocol is continued.

With `COc1ccc2c(c1OC)CN1CCc3cc4c(cc3C1=C2)OCO4` [DHB, Dihydroberberine] the “effects (same tests as in obese mice)” value (DHB + EODF combination vs EODF only) was “greater effects” and the “effectiveness (same tests as in obese mice)” value (DHB vs no DHB with and without EODF) was “greater effectiveness”.
